Reference: patent publication EP3495372B1 (priority 2017, dated 2019)
Read-outs that look alike come from different tables or passages of the source. Marks after values point to notes of the source that are not given here.

Columns and labels:
[1] = tested on: cultured human blood cells; test: Nucleic acid oxidation, 8-hydroxy-2'-deoxyguanosine assay; assay type: cell-based
From the text: (§1) All volunteers have signed informed consent.
Nucleic acid oxidation: 8-hydroxy-2'-deoxyguanosine assay kits (Cayman Chemical®) was used for determining 8- OH-dG levels in the cultures. It is a competitive assay that can be used for the quantification of 8-OHdG in homogenates and recognizes both free 8-OHdG and DNA-incorporated 8-OH-dG. This assay depends on the competition between 8-OH-dG and 8-OH-dGacetylcholinesterase (AChE) conjugate for a limited amount of 8-OH-dG monoclonal antibody (Abdel-Wahab BA, Metwally ME. Ginkgo biloba enhances the anticonvulsant and neuroprotective effects of sodium valproate against kainic acid-induced seizures in mice. J Pharmacol Toxicol. 2011; 6:679-690). All procedures were carried out in accordance with the provider's manual.
The levels of 8-OH-dG, a sensitive marker of oxidative DNA damage, were quantified about mitomycin (MMC) treatment. […] On the contrary, 8-OH-dG levels were not increased in the blood cells that were treated with BLA, MEM, and LA concentrations.

[2] = tested on: differentiated SH-SY5Y cells; test: TAC and TOS analysis in cellular model of Alzheimer's disease; assay type: cell-based, human; settings: co-treatment with Aβ1-42
Procedure: TAC and TOS analysis: the automated TAC and TOS assays were carried out by commercially available kits (Rel Assay^(R) Diagnostics, Gaziantep, Turkey) on samples from the cultures.
(§2) Control cells (n = 6) were cultured under normal conditions. 1% Triton X, ascorbic acid (10 µM) and hydrogen peroxide (H2O2, 25 µM) were used as positive controls for cell viability, TAC and TOS analysis, respectively.
Figure 5 and 6 show the effects of BLA and MEM treatments on TAC and TOS levels in cellular model of Alzheimer's disease, respectively.

[3] = tested on: cultured human lymphocytes; test: SCE assay (genotoxicity); assay type: cell-based
Procedure: as §1
SCE assay: to provide successive visualization of SCEs, 5-bromo-2-deoxyuridine was added at culture cells. Exactly 70 h and 30 min after beginning of the incubations, demecolcine ([…]) was added to the cultures. After hypotonic treatment (0.075 M KCl), followed by three repetitive cycles of fixation in methanol/acetic acid solution (3:1, v/v), centrifugation and re-suspension, the cell suspension was dropped onto chilled, grease-free microscopic slides, air-dried, aged for three days, and then differentially stained for the inspection of the SCE rate according to the fluorescence plus Giemsa (FPG) procedure. For each treatment condition, well-spread twenty-five second division metaphases containing 42-46 chromosomes per cell were scored and the values obtained were calculated as SCEs per cell.
The frequencies of sister chromatid exchanges (SCEs) with increasing BLA concentrations were investigated in cultured human lymphocytes.

[4] = tested on: platelet aggregation induced by ADP; test: Optical aggregometry in platelet-rich plasma, aggregation induced by ADP; assay type: cell-based, human; settings: ADP (20 µM)
Procedure: Blood Collection and Preparation of Platelet-Rich Plasma: blood was collected from healthy and non-smoking volunteers (all volunteers have signed informed consent) into a polypropylene tube containing 0.105 M buffered sodium citrate. None of the donors had received any medication known to affect platelet function for at least 10 days before blood collection. Platelet-rich plasma (PRP) was collected by the centrifugation of whole blood at 150 g for 15 min at room temperature. Subsequently, platelet-poor plasma (PPP) was collected by the centrifugation at 2000 g for 20 min at room temperature. The platelet count was adjusted to 2x10^8 cells /ml with PPP.
Incubation of PRP with BLA and LA: PRP was incubated with BLA and LA (25, 50, and 100 µM) for 15 minutes at 37 °C. PRP without any compound was used as a control.
Optical Aggregometry in Platelet-Rich Plasma: the measurement of platelet aggregation in PRP was performed using four-channel aggregometer (APACT 4004; LABiTec, Ahrensburg, Germany). After the incubation of PRP with three different compounds, platelet aggregation was stimulated by ADP (20 µM) and Collagen (10 µg/mL) and percentage of aggregation was monitored for 10 minutes. The percentage of aggregation, slope and shape change parameters were monitored for 10 minutes. Assay was started 1 hour after blood was collected and finished within 3 hours (Hao HZ, He AD, Wang DC, Yin Z, Zhou YJ, Liu G, Liang ML, Da XW, Yao GQ, Xie W, Xiang JZ, Ming ZY. Antiplatelet activity of loureirin A by attenuating Akt phosphorylation: In vitro studies. Eur. J. Pharmacol. 2015; 746:63-9).

[5] = tested on: differentiated SH-SY5Y human neuroblastoma cells; test: MTT assay, neuroprotective effects against Aβ1-42 cytotoxicity; assay type: cell-based; settings: 24 h, read-out: increase in the cell viability (MTT assay)
Procedure: Cell cultures and differentiation: SH-SY5Y cell line were growth in DMEM:F12 (1:1) media including 10% FBS and 1% penicillin/streptomycin at 37 °C and 5% CO2 until cells reach confluence. Then, cells harvested via using trypsin/EDTA solution and transferred to 48 well plates. For differentiation, media were changed to supplemented media with 10 µg/mL retinoic acid and incubated for 5 days. Finally, media were changed into serum free media supplementing with both 10 µM retinoic acid and 25 ng/mL BDNF. Differentiated cells were determined under invert microscope and the cells were used within 10 days (Encinas M, Iglesias M, Liu Y, Wang H, Muhaisen A, Ceña V, Gallego C, Comella JX. Sequential treatment of SH-SY5Y cells with retinoic acid and brain-derived neurotrophic factor gives rise to fully differentiated, neurotrophic factor-dependent, human neuron-like cells. J. Neurochem. 2002; 75:991-1003 e Cheung YT, Lau WKW, Yu MS, Lai CSW, Yeung SC, So KF, Chang RCC. Effects of all-trans-retinoic acid on human SH-SY5Y neuroblastoma as in vitro model in neurotoxicity research. Neurotoxicol. 2009; 30:127-135).
as §2
The cultures without BLA, MEM, or LA were studied as negative control group. 1% Triton-X was added to the culture media to provide negative control group. MTT reduction and LDH release observed after 24 h of Aβ1-42-exposure at 20 µM.

[6] = tested on: differentiated SH-SY5Y cells; test: Apoptosis detection by Hoechst 33258 staining; assay type: cell-based, human; settings: 25 and 50 µM co-treatment, 20 µM Aβ1-42, 24 h
Procedure: Apoptosis detection by Hoechst 33258 staining: Hoechst 33258 staining was used to detect apoptotic nuclei. […] Then, cells fixed with 4% paraformaldehyde in phosphate buffered saline at 4 °C for 30 min. After washing cells with PBS, the nuclear DNAs were incubated with […] Hoechst 33258 fluorescent dye for 5 min at room temperature. Cells were observed and photographed under a fluorescence microscopy (Leica® DM IL LED).

Row | SMILES | 8-OH-dG levels [1] | Aβ1-42-induced decreases of TAC and increases of TOS levels [2] | frequencies of sister chromatid exchanges (SCEs) ([3]; versus control group, P > 0.05) | Max. Aggregation (%) ([4]; 25 µM) | Shape change (%) ([4]; 25 µM) | Slope (%) ([4]; 25 µM) | Max. Aggregation (%) ([4]; 50 µM) | Shape change (%) ([4]; 50 µM) | Slope (%) ([4]; 50 µM) | Max. Aggregation (%) ([4]; 100 µM) | Shape change (%) ([4]; 100 µM) | Slope (%) ([4]; 100 µM) | viability at 25 µM [5] | viability at 50 µM [5] | viability at 100 µM [5] | nuclear integrity and apoptosis by Aβ1-42 (Hoechst 33258) [6] | frequencies of sister chromatid exchanges (SCEs) [3]
1 | CC1(C)C2CC3OB(CNC(=O)CCCC[C@H]4CCSS4)O[C@]3(C)C1C2 (stereo partly drawn) [BLA, 5-((S)-1,2-dithiolan-3-yl)-N-(((3aR)-3a,5,5-trimethylhexahydro-4,6-methanobenzo[d][1,3,2]dioxaborol-2-yl)methyl)pentanamide] | not increased | modulated | not significant differences | 49,8* % | 12.1* % | 66.7* % | 41.3* % | 10.3* % | 51.5* % | 32.2* % | 6.8* % | 47.3* % | 25.1% | 29.9% | 32.9% | protected nuclear integrity and inhibited apoptosis | 
2 | O=C(O)CCCCC1CCSS1 (centres unmarked) [LA, 1,2-dithiolane-3-pentanoic acid] | not increased | modulated |  | 55.8* % | 17.4* % | 69.8* % | 47.8* % | 14.5* % | 61.4* % | 44.6* % | 13.8* % | 58.0* % | 14.8% | 19% | 20.7% | protected nuclear integrity and inhibited apoptosis | not higher than the control group
